Experimental data from ChEMBL document CHEMBL1133317, “The solid phase synthesis of tetrahydroisoquinolines having cdc25B inhibitory activity” (Bioorg Med Chem Lett, 2000).

molecular target: T1, M-phase inducer phosphatase 2 (Homo sapiens) (UniProt P30305); assay: Inhibitory activity against Cell division cycle 25B at 100 uM
T1 sequence (whole entry): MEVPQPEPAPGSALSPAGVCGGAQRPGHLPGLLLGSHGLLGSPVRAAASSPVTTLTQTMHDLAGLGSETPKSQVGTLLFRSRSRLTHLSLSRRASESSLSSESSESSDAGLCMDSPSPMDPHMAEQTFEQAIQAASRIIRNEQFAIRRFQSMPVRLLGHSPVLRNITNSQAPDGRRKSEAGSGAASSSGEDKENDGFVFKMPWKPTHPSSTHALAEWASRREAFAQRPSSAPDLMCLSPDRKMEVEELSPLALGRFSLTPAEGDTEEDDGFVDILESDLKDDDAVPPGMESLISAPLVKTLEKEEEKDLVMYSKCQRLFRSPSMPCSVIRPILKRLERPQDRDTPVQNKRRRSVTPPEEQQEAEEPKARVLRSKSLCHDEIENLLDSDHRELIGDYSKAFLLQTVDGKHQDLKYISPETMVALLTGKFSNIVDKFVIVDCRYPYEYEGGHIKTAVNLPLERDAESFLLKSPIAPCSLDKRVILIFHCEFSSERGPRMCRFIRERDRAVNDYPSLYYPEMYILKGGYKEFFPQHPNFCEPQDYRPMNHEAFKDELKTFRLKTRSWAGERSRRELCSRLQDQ

SMILES	inhibition [%]
COc1cccc(COc2c(I)cc3c(c2I)CN(C(=O)/C=C/c2ccccc2F)[C@H](C(=O)O)C3)c1	34
COc1cccc(COc2c(I)cc3c(c2I)CN(C(=O)/C=C/c2cc(OC)c(OC)c(OC)c2)[C@H](C(=O)O)C3)c1	25
COc1cccc(COc2c(I)cc3c(c2I)CN(C(=O)/C=C/c2ccccc2C(F)(F)F)[C@H](C(=O)O)C3)c1	28
O=C(O)[C@@H]1Cc2cc(I)c(OCc3ccc(Cl)cc3Cl)c(I)c2CN1C(=O)/C=C/c1ccccc1F	32
O=C(O)[C@@H]1Cc2cc(I)c(OCc3cccc(C(F)(F)F)c3)c(I)c2CN1C(=O)/C=C/c1ccc(Cl)cc1	22
N#C/C(=C\c1ccccc1)C(=O)N1Cc2c(cc(I)c(OCC(=O)OCc3ccccc3)c2I)C[C@H]1C(=O)O	36
